According to publication PMC6100415, “Hepatic Metabolism of Sakuranetin and Its Modulating Effects on Cytochrome P450s and UDP-Glucuronosyltransferases” (Molecules : A Journal of Synthetic Chemistry and Natural …, 2018):
Read-outs that look alike come from different tables or passages of the source.

Legend:
[1] = target: T1, CYP1A2 (Homo sapiens, UniProt P05177); test: CYP inhibition in human liver microsomes, phenacetin O-deethylation (PCOD); type: in vitro ADME; details: pH 7.4, probe phenacetin (O-deethylation, PCOD)
T1 sequence (P05177 1-516): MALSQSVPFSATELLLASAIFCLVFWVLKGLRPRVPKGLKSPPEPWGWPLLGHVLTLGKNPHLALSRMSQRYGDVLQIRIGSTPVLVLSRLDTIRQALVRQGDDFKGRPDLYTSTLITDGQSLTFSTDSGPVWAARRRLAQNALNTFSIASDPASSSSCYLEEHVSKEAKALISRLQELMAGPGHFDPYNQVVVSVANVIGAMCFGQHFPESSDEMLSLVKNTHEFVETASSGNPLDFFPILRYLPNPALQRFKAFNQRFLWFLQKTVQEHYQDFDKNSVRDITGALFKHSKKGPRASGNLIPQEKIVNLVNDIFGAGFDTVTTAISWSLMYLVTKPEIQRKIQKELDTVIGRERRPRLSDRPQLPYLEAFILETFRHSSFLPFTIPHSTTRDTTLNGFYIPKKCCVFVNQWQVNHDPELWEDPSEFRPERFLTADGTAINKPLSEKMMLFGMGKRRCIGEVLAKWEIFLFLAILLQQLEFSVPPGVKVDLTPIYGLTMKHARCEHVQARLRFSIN
From the text: (§1) The DAD was set at 280 nm.

[2] = UDPGA-dependent metabolic stability in mouse liver microsomes; type: in vitro ADME; details: for half-life at 100 µM / CLint scaled at 100 µM: mouse, pH 7.4, mouse liver microsomes; for CLint scaled at 100 µM: read-out: CLint, hepatic
Method: (§2) Metabolic stability was measured by monitoring the amount of parent compound that remained in an incubation mixture at designated incubation time points. For the phase I metabolism study, SKN (100 μM) was incubated with liver microsomes (1 mg/mL, rat, mouse, and dog; and 0.5 mg/mL, human), and an NADPH-generation cocktail consisting of nicotinamide adenine dinucleotide phosphate (NADP^+, 1 mM), glucose-6-phosphate (5 mM), glucose-6-phosphate dehydrogenase (1 unit/mL), and MgCl2 (10 mM) in potassium phosphate buffer (0.1 M, pH 7.4) in a total volume of 1 mL. To study phase II glucuronide conjugative metabolism, uridine 5′-diphosphoglucuronic acid (UDPGA) (2 mM) was added as a cofactor. The mixture was incubated in a shaking water bath, and the enzyme reaction was initiated by the addition of NADP^+, UDPGA, or both. Aliquots (100 μL) were removed at 0, 5, 15, 30, 45, and 60 min, and the reaction was terminated by adding two volumes of ice-cold methanol. […] The half-life of SKN was obtained by plotting the remaining amount of SKN against time using Prism 3.0 software (GraphPad, La Jolla, CA, USA). Hepatic intrinsic clearance (CLint, hepatic) was calculated using the following formula [20]:CLint, hepatic = (0.693/t1/2) × (g liver weight/kg body weight) × (mL incubation/mg of microsomal protein) × (mg microsomal protein concentration/g of liver)
as §1

[3] = NADPH-dependent phase I metabolic stability in human liver microsomes; type: in vitro ADME
Method: as §2, §1

[4] = NADPH-dependent phase I metabolic stability in dog liver microsomes; type: in vitro ADME
Method: as §2, §1

[5] = UDPGA-dependent metabolic stability in dog liver microsomes; type: in vitro ADME; details: for Amount Remaining at 30 min (%): dog liver microsomes; for half-life at 100 µM / CLint scaled at 100 µM: dog, liver microsomes, pH 7.4, dog liver microsomes; for CLint scaled at 100 µM: read-out: CLint, hepatic
Method: as §2, §1

[6] = NADPH-dependent phase I metabolic stability in mouse liver microsomes; type: in vitro ADME
Method: as §2, §1

[7] = target: T2, CYP2C9 (Homo sapiens, UniProt P11712); test: CYP inhibition in human liver microsomes, diclofenac 4′-hydroxylation (DCHY); details: CYP2C9, DCHY, SKN 10 μM, 15 min pre-incubation
T2 sequence (P11712 whole entry): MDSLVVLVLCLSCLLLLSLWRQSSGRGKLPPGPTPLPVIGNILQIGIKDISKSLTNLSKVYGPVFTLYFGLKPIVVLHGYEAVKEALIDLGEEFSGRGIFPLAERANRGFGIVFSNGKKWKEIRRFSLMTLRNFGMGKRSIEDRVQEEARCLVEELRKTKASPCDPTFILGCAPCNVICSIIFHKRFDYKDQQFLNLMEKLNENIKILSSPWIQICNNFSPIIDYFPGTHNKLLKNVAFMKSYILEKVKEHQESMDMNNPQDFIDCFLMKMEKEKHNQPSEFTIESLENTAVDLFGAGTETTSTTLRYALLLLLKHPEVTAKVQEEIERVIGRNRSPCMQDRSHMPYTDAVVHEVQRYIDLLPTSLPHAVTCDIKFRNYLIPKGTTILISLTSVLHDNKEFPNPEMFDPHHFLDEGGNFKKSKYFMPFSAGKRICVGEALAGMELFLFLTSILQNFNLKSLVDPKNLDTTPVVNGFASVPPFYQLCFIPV
Method: (§3) The formation of a metabolite from a CYP isozyme-specific phenotyping reaction (Table 4) was monitored. Each substrate (200 μM), along with SKN (10 μM), was incubated with human liver microsomes (0.5 mg/mL) and an NADPH-generating system in 0.1 M potassium phosphate buffer (pH 7.4) at 37 °C for 60 min in a total volume of 200 μL in a shaking water bath. The metabolic reaction was initiated by adding NADP^+ (1 mM) and stopped by adding 10 μL of trichloroacetic acid. In some experiments, the microsomes were pre-incubated with SKN for 15 min prior to the addition of the cofactor, in order to determine the time-dependent inhibitory effect. […] In contrast, co-incubation refers to experiments in which microsomes and cofactors were incubated in the presence of SKN. After centrifugation of incubation samples at 12,000× g for 15 min at 4 °C, the supernatant (20 μL) was injected into an HPLC-DAD system to analyze the metabolites formation (Supplementary Materials).
(§4) The DAD was set at 248 nm for phenacetin O-deethylation (PCOD), 298 nm for bupropion hydroxylation (BPHY), 276 nm for diclofenac 4′-hydroxylation (DCHY), 230 nm for tolbutamide 6-hydroxylation (TOLHY), 280 nm for dextromethorphan O-demethylation (DEXOD), and 250 nm for testosterone 6β-hydroxylation (TSTHY) and testosterone β-D-glucuronidation (TSTG).

[8] = UDPGA-dependent metabolic stability in rat liver microsomes; type: in vitro ADME; details: for CLint scaled at 100 µM: read-out: CLint, hepatic; for half-life at 100 µM: rat, pH 7.4, rat liver microsomes
Method: as §2, §1

[9] = NADPH-dependent phase I metabolic stability in rat liver microsomes; type: in vitro ADME
Method: as §2, §1

[10] = target: T3, estrogen receptor (ER) (Homo sapiens, UniProt P03372); test: Estrogen receptor agonist-like activity in ER-positive human breast cancer cells; type: cell-based; details: preliminary data, not shown
T3 construct: endogenous in cells
T3 sequence (P03372 1-595): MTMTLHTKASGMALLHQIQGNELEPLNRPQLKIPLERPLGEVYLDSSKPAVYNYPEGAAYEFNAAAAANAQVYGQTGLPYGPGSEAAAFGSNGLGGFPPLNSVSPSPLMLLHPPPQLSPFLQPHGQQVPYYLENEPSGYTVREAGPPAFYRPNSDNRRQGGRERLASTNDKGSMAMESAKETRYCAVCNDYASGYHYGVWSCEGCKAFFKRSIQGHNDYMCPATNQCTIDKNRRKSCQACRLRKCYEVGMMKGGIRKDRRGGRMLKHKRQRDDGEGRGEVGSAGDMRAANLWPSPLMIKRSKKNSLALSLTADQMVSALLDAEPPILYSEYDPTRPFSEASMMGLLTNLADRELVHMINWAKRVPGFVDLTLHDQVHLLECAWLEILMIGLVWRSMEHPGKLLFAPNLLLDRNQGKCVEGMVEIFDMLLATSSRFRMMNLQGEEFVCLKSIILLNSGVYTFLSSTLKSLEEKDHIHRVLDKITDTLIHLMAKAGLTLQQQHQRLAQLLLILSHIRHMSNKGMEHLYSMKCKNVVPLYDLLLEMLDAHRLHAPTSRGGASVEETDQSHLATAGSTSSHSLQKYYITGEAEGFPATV

[11] = target: T2, CYP2C9; test: CYP inhibition in human liver microsomes, tolbutamide 6-hydroxylation (TOLHY); details: CYP2C9, TOLHY, SKN 10 μM
Method: as §3, §4

COc1cc(O)c2c(c1)OC(c1ccc(O)cc1)CC2=O (racemic) [SKN, (+/−) 7-O-methylnaringenin]
inhibition at 60 min, 10 µM ([1]; liver microsomes, 200 μM, SKN 10 μM, 15 min pre-incubation, read-out: % Inhibition in Pre-Incubation): 1.5 ± 2.1%
inhibition at 60 min, 10 µM ([1]; liver microsomes, 200 μM, SKN 10 μM, human liver microsomes, read-out: % Inhibition in Co-Incubation): 0.4 ± 0.5%
Amount Remaining at 30 min (%) ([2]; NADPH +): 0.0%
t1/2 ([2]; NADPH +): 0.91 min
Amount Remaining at 30 min (%) ([2]; NADPH −): 1.8%
half-life at 100 µM ([2]; NADPH +): 0.9 min
CLint scaled at 100 µM ([2]; NADPH +): 3280 mL/min/kg
half-life at 100 µM ([2]; NADPH −): 3.8 min
CLint scaled at 100 µM ([2]; NADPH −): 802 mL/min/kg
Amount Remaining at 30 min (%) ([3]; human liver microsomes 0.5 mg/mL, SKN 100 μM): 65.5%
amount of SKN remaining after 60 min of incubation ([3]; human liver microsomes, 60 min): greater than 50%
half-life at 100 µM ([3]; pH 7.4, human liver microsomes): > 60 min
CLint scaled at 100 µM ([3]; pH 7.4, human liver microsomes, read-out: CLint, hepatic): < 20.8 mL/min/kg
Amount Remaining at 30 min (%) ([4]; dog liver microsomes 1 mg/mL, SKN 100 μM): 18.5%
amount of SKN remaining after 60 min of incubation ([4]; dog liver microsomes, 60 min): 18.5%
half-life at 100 µM ([4]; pH 7.4, dog liver microsomes): 2.7 min
CLint scaled at 100 µM ([4]; pH 7.4, dog liver microsomes, read-out: CLint, hepatic): 641 mL/min/kg
Amount Remaining at 30 min (%) ([5]; NADPH +): 0.0%
Amount Remaining at 30 min (%) ([5]; NADPH −): 42.4%
half-life at 100 µM ([5]; NADPH +): 5.8 min
CLint scaled at 100 µM ([5]; NADPH +): 300 mL/min/kg
half-life at 100 µM ([5]; NADPH −): 24.2 min
CLint scaled at 100 µM ([5]; NADPH −): 71.4 mL/min/kg
Amount Remaining at 30 min (%) ([6]; mouse liver microsomes 1 mg/mL, SKN 100 μM): 4.90%
amount of SKN remaining after 60 min of incubation ([6]; mouse liver microsomes, 60 min): 4.9%
half-life at 100 µM ([6]; pH 7.4, mouse liver microsomes): 5.4 min
CLint scaled at 100 µM ([6]; pH 7.4, mouse liver microsomes, read-out: CLint, hepatic): 565 mL/min/kg
% Inhibition in Pre-Incubation [7]: 8.7 ± 1.4%
Amount Remaining at 30 min (%) ([8]; NADPH +): 0.0%
Amount Remaining at 30 min (%) ([8]; NADPH −): 17.1%
CLint scaled at 100 µM ([8]; pH 7.4, NADPH +): 557 mL/min/kg
CLint scaled at 100 µM ([8]; pH 7.4, NADPH −): 287 mL/min/kg
half-life at 100 µM ([8]; NADPH +): 2.2 min
half-life at 100 µM ([8]; NADPH −): 4.4 min
half-life at 100 µM ([9]; pH 7.4, rat liver microsomes): 10.1 min
CLint scaled at 100 µM ([9]; pH 7.4, rat liver microsomes, read-out: CLint, hepatic): 124 mL/min/kg
Amount Remaining at 30 min (%) ([9]; rat liver microsomes 1 mg/mL, SKN 100 μM): 29.0%
estrogen receptor (ER) agonist-like activity [10]: agonist-like activity
% Inhibition in Pre-Incubation ([11]; 15 min pre-incubation): 10.1 ± 1.2%
% Inhibition in Co-Incubation ([11]; human liver microsomes): 2.0 ± 0.6%

O=C1C[C@@H](c2ccc(O)c(O)c2)Oc2cc(O)cc(O)c21 [Eriodictyol, 3′-hydroxynaringenin]
inhibition at 60 min, 10 µM ([1]; human liver microsomes, 200 µM, inhibitor 10 M [sic], human liver microsomes 0.5 mg/mL, read-out: Inhibition (%)): 15.9 ± 1.8%
